Measured values reported in patent US20030180249A1, “Dosage forms for hygroscopic active ingredients” (priority 2002, published 2003).

Key:
Assay type in all cases: physicochemical
[1] = Storage stability of valproate resinates (ambient conditions): appearance over time; details: ambient 25° C., 56% relative humidity
Description: The samples from Example 3 were re-dried @60° C. in vaccuo overnight and then exposed to ambient conditions. During the test the ambient temperature was 25° C. and relative humidity was 56%.

[2] = Release of valproate from resinate, flow-thru filtration cell, USP 24 valproic acid dissolution medium; details: 37° C., equivalent of 60 mg sodium valproate
Description: The release of valproate from Resinate A was evaluated and compared to that of sodium valproate. The evaluation was performed using a 50 ml Millipore flow-thru filtration cell operated at 37° C. The dissolution medium was prepared as described in the US Pharmacopeia 24 monograph for Valproic Acid (page 1733).
An amount for resinate containing the equivalent of 60 mg of sodium valproate was used for one test and 60 mg of sodium valproate for the other. Fractions were collected at 20, 40, and 60 minutes. Sample preparation and analysis were done according to the US Pharmacopeia 24 monograph for Valproic Acid (page 1733).

[3] = Storage stability of valproate resinates (severe conditions): moisture uptake and appearance; details: 40° C., 75% Relative Humidity
Description: One gram of each dry resin and resinate were weighed out accurately on an analytical balance in an aluminum dish along with a sample of sodium valproate. They were dried for two hours @60° C. in vaccuo and then placed in an incubator was at 40° C. and 75% Relative Humidity. After 17 hours the samples were removed from the incubator and weighed and observations on appearance were noted. % weight increases were calculated.

CCCC(CCC)C(=O)[O-].[Na+] [Na Valproate, sodium valproate]
Observation (appearance) ([1]; time 7:30): Sodium valproate sample is sticky; | Observation (appearance) ([1]; time 7:45): Sodium valproate sample is sticky; | % Valproate dissolved or released, 20 mins ([2]; 20 mins): 81.9% | % Valproate dissolved or released, 40 mins ([2]; 40 mins): 97.8% | % Valproate dissolved or released, 60 mins ([2]; 60 mins): 100% | Total release [2]: 60.1 mg | Moisture uptake (%) ([3]; 17 hours, after drying 2 h at 60° C. in vacuo): 40.4% | Observation (appearance) ([3]; after 17 hours): Liquid
